According to US11420944B2, “Voltage-dependent t-type calcium channel blocker” (Nippon Chemiphar Co., Ltd., priority 2016, dated 2022):
Where a name gives a salt, the structure may show the parent alone. Read-outs that look alike come from different tables or passages of the source.

Target: T1, human Cav3.2 channels (Homo sapiens, UniProt O95180)
T1 construct: expressed in transfected cells; host or cells: HEK293 cells (ATCC No. CRL-1573), plasmid pcDNA3.1(+)
Assay: Intracellular calcium concentration measurement (Fluo-4 AM) in stable cells expressing human Cav3.2 channels, buffer A / buffer B
Assay type: cell-based
Description: Construction of Stable Cells Expressing Human Cav3.2 Channels
(1) A sequence produced by incorporating HindIII site and kozak sequence (GCCACC) into the 5′-terminal side of human Cav3.2 channel ORF (Open Reading Frame) gene and incorporating Kpnl site into the 3′-terminal side was incorporated into pcDNA3.1(+) (Thermo-Fisher Scientific, Inc., #V790-20), and the plasmid was transfected into HEK293 cells (ATCC No. CRL-1573) according to the protocol of FuGENE (registered trademark) HD Transfection Reagent (PROMEGA #E2311).
(2) Method for Measuring Intracellular Calcium Concentration
In the present measurement system, buffer A and buffer B having different potassium ion concentrations were used in order to evaluate the state-dependent Cav3.2 inhibitory action of a test compound.
Stable cell line expressing human Cav3.2 channels, which had been produced in (1), was seeded in a 96-well plate using DMEM medium including 10% FBS, and the cells were cultured for 48 hours under the conditions of 37° C. and 5% CO2. Subsequently, the medium was removed, and various wells that had been washed with a base buffer were treated with 80 μL of a fluorescent dye solution containing a mixed liquid of 22 μg of calcium fluorescence indicator Fluo-4 AM (Dojindo Laboratories Co., Ltd., #F311), 20 μL of DMSO, […] of 10% Pluronic F-127 (Thermo-Fisher Scientific, Inc., #P6866), and 4 mL of a base buffer. The cells were left to stand for 45 minutes at room temperature in the dark, and then the cells were washed with buffer A or buffer B. Solutions having various test compound concentrations and respectively containing buffer A or buffer B were added to the respective wells, the respective solutions containing DMSO at the same final concentration as that of the test compound as negative control, or containing the test compound dissolved in 100% DMSO at a final concentration of 0.1%. The cells were left to stand for another 15 minutes at room temperature in the dark, and the cells were analyzed using the following method using a microplate reader, EnVision (PerkinElmer, Inc.). First, the background fluorescence for each well was measured, subsequently an ionophore was added to the well, and the fluorescence of the baseline was measured. Subsequently, buffer A or buffer B containing added KCl at a concentration of 83.8 mM or 91.8 mM was added to each well, and an increase in fluorescence caused by a calcium influx generated by that stimulus was measured for 10 seconds. The percentage inhibition was calculated from the maximum fluorescence increment from the baseline, and the logarithmic value of the test compound concentration and the inhibitory activity were plotted to calculate the IC50 value. The analysis was carried out by measuring the fluorescence at 510 nm emitted when the cells were irradiated with exciting light at 485 nm.
Base buffer: 140 mM NaCl, 5 mM KCl, 1 mM MgCl2, 0.5 mM CaCl2, 10 mM Glucose, and 10 mM HEPES, pH 7.3
Buffer A: Equilibrium potential of potassium: −92 mV

[1] = Tables 2 to 6, buffer A, equilibrium potential of potassium −92 mV, read-out: Inhibitory action of buffer A (inactivated state)
[2] = Table 1, buffer A, equilibrium potential of potassium −92 mV, read-out: Inhibitory action of buffer A (inactivated state)
[3] = Table 1, buffer B, equilibrium potential of potassium −110 mV, read-out: Inhibitory action of buffer B (resting state or closed state)

T1 sequence (O95180 whole entry): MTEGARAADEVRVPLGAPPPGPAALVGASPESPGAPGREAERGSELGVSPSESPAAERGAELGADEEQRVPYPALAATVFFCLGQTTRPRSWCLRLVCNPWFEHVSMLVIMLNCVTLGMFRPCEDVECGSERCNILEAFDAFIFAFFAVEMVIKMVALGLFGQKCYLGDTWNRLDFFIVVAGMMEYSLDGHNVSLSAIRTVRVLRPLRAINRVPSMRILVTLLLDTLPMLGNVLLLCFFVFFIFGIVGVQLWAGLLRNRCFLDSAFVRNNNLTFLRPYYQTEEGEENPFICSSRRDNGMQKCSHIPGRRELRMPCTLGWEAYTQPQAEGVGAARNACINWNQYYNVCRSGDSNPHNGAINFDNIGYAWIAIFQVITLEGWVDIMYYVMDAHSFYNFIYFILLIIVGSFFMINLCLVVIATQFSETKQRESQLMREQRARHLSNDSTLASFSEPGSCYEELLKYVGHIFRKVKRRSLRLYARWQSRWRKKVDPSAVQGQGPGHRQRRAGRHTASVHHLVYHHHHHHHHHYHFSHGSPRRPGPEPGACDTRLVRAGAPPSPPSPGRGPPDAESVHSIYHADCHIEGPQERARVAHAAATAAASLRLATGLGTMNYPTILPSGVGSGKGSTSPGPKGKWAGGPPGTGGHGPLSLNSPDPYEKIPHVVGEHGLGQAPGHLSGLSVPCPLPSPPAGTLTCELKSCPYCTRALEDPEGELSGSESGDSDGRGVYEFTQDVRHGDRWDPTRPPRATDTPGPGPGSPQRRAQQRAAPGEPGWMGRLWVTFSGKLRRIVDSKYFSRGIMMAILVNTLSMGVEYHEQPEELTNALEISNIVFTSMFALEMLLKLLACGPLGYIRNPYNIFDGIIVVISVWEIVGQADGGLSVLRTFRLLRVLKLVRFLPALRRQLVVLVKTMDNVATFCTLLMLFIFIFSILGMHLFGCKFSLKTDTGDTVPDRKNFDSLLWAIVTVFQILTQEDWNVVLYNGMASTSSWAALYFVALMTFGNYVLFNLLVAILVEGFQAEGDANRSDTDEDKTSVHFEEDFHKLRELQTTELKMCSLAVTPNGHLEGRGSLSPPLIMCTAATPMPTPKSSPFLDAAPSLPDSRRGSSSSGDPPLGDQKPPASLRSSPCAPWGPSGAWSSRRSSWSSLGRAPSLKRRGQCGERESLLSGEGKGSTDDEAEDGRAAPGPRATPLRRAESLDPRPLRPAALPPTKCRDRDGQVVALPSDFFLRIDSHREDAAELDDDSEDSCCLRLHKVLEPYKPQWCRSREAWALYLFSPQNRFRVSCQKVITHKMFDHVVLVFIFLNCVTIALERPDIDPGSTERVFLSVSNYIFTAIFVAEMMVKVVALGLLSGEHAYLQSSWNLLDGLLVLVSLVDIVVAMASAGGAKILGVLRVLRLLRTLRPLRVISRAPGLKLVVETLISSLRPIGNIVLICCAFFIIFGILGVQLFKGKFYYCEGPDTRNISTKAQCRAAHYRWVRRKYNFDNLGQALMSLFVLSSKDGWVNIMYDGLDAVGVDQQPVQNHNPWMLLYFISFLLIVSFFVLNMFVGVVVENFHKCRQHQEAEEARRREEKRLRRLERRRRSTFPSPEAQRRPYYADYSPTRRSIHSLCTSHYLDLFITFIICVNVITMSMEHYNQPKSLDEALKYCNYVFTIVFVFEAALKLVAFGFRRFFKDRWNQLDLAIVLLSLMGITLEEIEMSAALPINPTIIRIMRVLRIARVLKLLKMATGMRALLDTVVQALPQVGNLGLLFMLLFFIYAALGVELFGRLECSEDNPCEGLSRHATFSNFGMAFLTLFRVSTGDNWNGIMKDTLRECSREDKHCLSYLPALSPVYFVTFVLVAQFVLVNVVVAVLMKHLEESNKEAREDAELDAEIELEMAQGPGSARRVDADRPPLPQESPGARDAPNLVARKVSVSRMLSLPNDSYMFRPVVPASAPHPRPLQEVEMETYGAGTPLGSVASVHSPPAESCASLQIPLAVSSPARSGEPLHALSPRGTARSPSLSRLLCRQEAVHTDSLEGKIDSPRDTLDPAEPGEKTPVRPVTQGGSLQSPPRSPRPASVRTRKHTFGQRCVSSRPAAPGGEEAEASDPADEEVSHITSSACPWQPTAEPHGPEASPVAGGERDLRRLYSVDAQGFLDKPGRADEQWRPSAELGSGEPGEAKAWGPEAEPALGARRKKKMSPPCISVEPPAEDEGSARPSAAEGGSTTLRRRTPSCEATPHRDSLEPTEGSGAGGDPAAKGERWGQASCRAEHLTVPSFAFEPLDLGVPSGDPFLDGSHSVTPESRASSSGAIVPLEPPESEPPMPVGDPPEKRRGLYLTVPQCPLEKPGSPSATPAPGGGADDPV

IC50 [1] [µM]	IC50 [2] [µM]	IC50 [3] [µM]	Structure (SMILES)
0.1 to 1	–	–	C[C@@H](NC(=O)C1CC1c1c[nH]c2ccccc12)c1cc2cc(F)ccc2o1 (single isomer, unassigned) [Example 98A]
0.1 to 1	–	–	C[C@@H](NC(=O)C1CC1c1c[nH]c2ccccc12)c1cc2cc(F)ccc2o1 (single isomer, unassigned) [Example 98B]
0.1 to 1	–	–	C[C@@H](NC(=O)C1CC1c1ccc2cnn(C)c2c1)c1cc2cc(F)ccc2o1 (single isomer, unassigned) [Example 103A]
> 10	–	–	C[C@@H](NC(=O)C1CC1c1ccc2cnn(C)c2c1)c1cc2cc(F)ccc2o1 (single isomer, unassigned) [Example 103B]
1 to 10	–	–	Cc1ccc2nc(C3CC3C(=O)N[C@H](C)c3ccc(OCC(F)(F)F)s3)[nH]c2n1 (single isomer, unassigned) [Example 106A]
1 to 10	–	–	Cc1ccc2nc(C3CC3C(=O)N[C@H](C)c3ccc(OCC(F)(F)F)s3)[nH]c2n1 (single isomer, unassigned) [Example 106B]
0.1 to 1	–	–	C[C@@H](NC(=O)C1CC1c1nc2cc(Cl)ccc2o1)c1cc2cc(F)ccc2o1 (single isomer, unassigned) [Example 108A]
0.1 to 1	–	–	C[C@@H](NC(=O)C1CC1c1nc2cc(Cl)ccc2o1)c1cc2cc(F)ccc2o1 (single isomer, unassigned) [Example 108B]
1 to 10	–	–	C[C@@H](NC(=O)C1CC1COc1ccc(F)cc1)c1cc2cc(F)ccc2o1 (single isomer, unassigned) [Example 112A]
0.1 to 1	–	–	C[C@@H](NC(=O)C1CC1COc1ccc(F)cc1)c1cc2cc(F)ccc2o1 (single isomer, unassigned) [Example 112B]
1 to 10	–	–	C[C@@H](NC(=O)C1CC1c1ncc2ccccn12)c1cc2cc(F)ccc2o1 (single isomer, unassigned) [Example 117B]
≤ 0.1	–	–	C[C@@H](NC(=O)C1CC1c1nc2c(Cl)cccc2[nH]1)c1ccc(OCC(F)(F)F)s1 (single isomer, unassigned) [Example 122A]
0.1 to 1	–	–	C[C@@H](NC(=O)C1CC1c1nc2c(Cl)cccc2[nH]1)c1ccc(OCC(F)(F)F)s1 (single isomer, unassigned) [Example 122B]
0.1 to 1	–	–	CC(NC(=O)[C@H]1C[C@@H]1c1nc2ccccc2[nH]1)c1nc2ccc(F)cc2[nH]1 (single isomer, unassigned) [Example 127A]
1 to 10	–	–	CC(NC(=O)[C@H]1C[C@@H]1c1nc2ccccc2[nH]1)c1nc2ccc(F)cc2[nH]1 (single isomer, unassigned) [Example 127B]
0.1 to 1	–	–	C[C@@H](NC(=O)C1CC1C(=O)Nc1cccc(C(F)(F)F)c1)c1cc2cc(F)ccc2o1 (single isomer, unassigned) [Example 130B]
1 to 10	–	–	C[C@@H](NC(=O)C1CC1c1nc2ccccc2[nH]1)c1ccc(C(=O)N2CCOCC2)s1 (stereo in doubt) [Example 56, Trans-2-(1H-benzo[d]imidazol-2-yl)-N—((R)-1-(5-(morpholine-4-carbonyl)thiophen-2-yl)ethyl)cyclopropane-1-carboxamide]
1 to 10	–	–	C[C@@H](NC(=O)C1CC1c1nc2ccccc2[nH]1)c1ccc(C(=O)N2CCCC2(C)C)s1 (stereo in doubt) [Example 67, Trans-2-(1H-benzo[d]imidazol-2-yl)-N—((R)-1-(5-(2,2-dimethylpyrrolidine-1-carbonyl)thiophen-2-yl)ethyl)cyclopropane-1-carboxamide]
1 to 10	–	–	C[C@@H](NC(=O)C1CC1c1nc2ccccc2[nH]1)c1ccc(C(=O)N2CCN(C)CC2)s1 (stereo in doubt) [Example 68, Trans-2-(1H-benzo[d]imidazol-2-yl)-N—((R)-1-(5-(4-methylpiperazine-1-carbonyl)thiophen-2-yl)ethyl)cyclopropane-1-carboxamide]
1 to 10	–	–	C[C@@H](NC(=O)C1CC1c1nc2ccccc2[nH]1)c1ccc(C(=O)N2CCNCC2)s1 (stereo in doubt) [Example 75, Trans-2-(1H-benzo[d]imidazol-2-yl)-N—((R)-1-(5-(piperazine-1-carbonyl)thiophen-2-yl)ethyl)cyclopropane-1-carboxamide]
–	> 10	–	C[C@@H](NC(=O)C1CC1c1nc2ccccc2[nH]1)c1cnn(CCC(F)(F)F)c1 (stereo partly shown) [Example 9]
–	0.1 to 1	0.1 to 1	CC(NC(=O)C1CC1c1nc2ccccc2[nH]1)c1cn(C(=O)OC(C)(C)C)c2ccccc12 (stereo not drawn) [Example 10, Trans-3-(1-(2-(1H-benzo[d]imidazol-2-yl)cyclopropanecarboxamido)ethyl)-1H-indole-1-carboxylic acid tert-butyl ester]
–	> 10	–	C[C@@H](NC(=O)[C@@H]1CCN(c2nc3ccccc3s2)C1)c1ccc(OCC(F)(F)F)s1 [Example 13, (R)-1-(benzo[d]thiazol-2-yl)-N—((R)-1-(5-(2,2,2-trifluoroethoxy)thiophen-2-yl)ethyl)pyrrolidine-3-carboxamide]
–	1 to 10	1 to 10	C[C@@H](NC(=O)[C@H]1CCN(CC(=O)NC(C)(C)C)C1)c1ccc(OCC(F)(F)F)s1 [Example 14, (S)-1-(2-(tert-butylamino)-2-oxoethyl)-N—((R)-1-(5-(2,2,2-trifluoroethoxy)thiophen-2-yl)ethyl)pyrrolidine-3-carboxamide hydrochloride]
–	0.1 to 1	1 to 10	C[C@@H](NC(=O)[C@@H]1CCN(CC(=O)Nc2nccs2)C1)c1ccc(OCC(F)(F)F)s1 [Example 16, (R)-1-(2-oxoethyl-2-(thiazol-2-ylamino)ethyl)-N—((R)-1-(5-(2,2,2-trifluoroethoxy)thiophen-2-yl)ethyl)pyrrolidine-3-carboxamide]
–	1 to 10	1 to 10	C[C@@H](NC(=O)[C@@H]1CCN(CCC(C)(C)C)C1)c1ccc(OCC(F)(F)F)s1 [Example 18, (R)-1-(3,3-dimethylbutyl)-N—((R)-1-(5-(2,2,2-trifluoroethoxy)thiophen-2-yl)ethyl)pyrrolidine-3-carboxamide hydrochloride]
1 to 10	–	–	C[C@@H](NC(=O)[C@@H]1C[C@H]1c1nc2ccccc2[nH]1)c1ccc(C(=O)OC(C)(C)C)s1 [Example 25B, Trans-5-((1R)-1-(2-(1H-benzo[d]imidazol-2-yl)cyclopropane-1-carboxamido)ethyl)thiophene-2-carboxylic acid tert-butyl ester]
1 to 10	–	–	C[C@@H](NC(=O)[C@@H]1CCN(CC(=O)Nc2cnccn2)C1)c1ccc(OCC(F)(F)F)s1 [Example 37, (R)-1-(2-oxo-2-(pyrazin-2-ylamino)ethyl)-N—((R)-1-(5-(2,2,2-trifluoroethoxy)thiophen-2-yl)ethyl)pyrrolidine-3-carboxamide]
1 to 10	–	–	C[C@@H](NC(=O)[C@@H]1CCN(c2ccc(C(F)(F)F)cn2)C1)c1ccc(OCC(F)(F)F)s1 [Example 41, (R)—N—((R)-1-(5-(2,2,2-trifluoroethoxy)thiophen-2-yl)ethyl)-1-(5-(trifluoromethyl)pyridin-2-yl)pyrrolidine-3-carboxamide]
0.1 to 1	–	–	C[C@@H](NC(=O)[C@H]1C[C@@H]1c1nc(-c2ccccn2)c[nH]1)c1ccc(OCC(F)(F)F)s1 [Example 46, (1S,2S)-2-(4-(pyridin-2-yl)-1H-imidazol-2-yl)-N—((R)-1-(5-(2,2,2-trifluoroethoxy)thiophen-2-yl)ethyl)cyclopropane-1-carboxamide]
